{
  "source": "ChEMBL document CHEMBL1201862",
  "about": "“PubChem BioAssay data set” (2004)",
  "assay_in_all_cases": "inhibition of tumour cell growth, NCI panel, 48 h",
  "key": {"786-0": {"tested_on": "786-0"}, "A498": {"tested_on": "A498"}, "A549": {"tested_on": "A549"}, "ACHN": {"tested_on": "ACHN"}, "BT-549": {"tested_on": "BT-549"}, "CAKI-1": {"tested_on": "CAKI-1"}, "CCRF-CEM": {"tested_on": "CCRF-CEM"}, "COLO 205": {"tested_on": "COLO 205"}, "DU-145": {"tested_on": "DU-145"}, "EKVX": {"tested_on": "EKVX"}, "HCC 2998": {"tested_on": "HCC 2998"}, "HCT-116": {"tested_on": "HCT-116"}, "HCT-15": {"tested_on": "HCT-15"}, "HL-60": {"tested_on": "HL-60"}, "HOP-62": {"tested_on": "HOP-62"}, "HOP-92": {"tested_on": "HOP-92"}, "HT-29": {"tested_on": "HT-29"}, "Hs-578T": {"tested_on": "Hs-578T"}, "IGROV-1": {"tested_on": "IGROV-1"}, "K562": {"tested_on": "K562"}, "KM12": {"tested_on": "KM12"}, "LOX IMVI": {"tested_on": "LOX IMVI"}, "M14": {"tested_on": "M14"}, "MCF7": {"tested_on": "MCF7"}, "MDA-MB-231": {"tested_on": "MDA-MB-231"}, "MDA-MB-435": {"tested_on": "MDA-MB-435"}, "MDA-N": {"tested_on": "MDA-N"}, "MOLT-4": {"tested_on": "MOLT-4"}, "Malme-3M": {"tested_on": "Malme-3M"}, "NCI-H226": {"tested_on": "NCI-H226"}, "NCI-H23": {"tested_on": "NCI-H23"}, "NCI-H460": {"tested_on": "NCI-H460"}, "NCI-H522": {"tested_on": "NCI-H522"}, "NCI/ADR-RES": {"tested_on": "NCI/ADR-RES"}, "OVCAR-3": {"tested_on": "OVCAR-3"}, "OVCAR-4": {"tested_on": "OVCAR-4"}, "OVCAR-5": {"tested_on": "OVCAR-5"}, "OVCAR-8": {"tested_on": "OVCAR-8"}, "PC-3": {"tested_on": "PC-3"}, "RPMI-8226": {"tested_on": "RPMI-8226"}, "RXF 393": {"tested_on": "RXF 393"}, "SF-268": {"tested_on": "SF-268"}, "SF-295": {"tested_on": "SF-295"}, "SF-539": {"tested_on": "SF-539"}, "SK-MEL-28": {"tested_on": "SK-MEL-28"}, "SK-MEL-2": {"tested_on": "SK-MEL-2"}, "SK-MEL-5": {"tested_on": "SK-MEL-5"}, "SK-OV-3": {"tested_on": "SK-OV-3"}, "SN12C": {"tested_on": "SN12C"}, "SNB-19": {"tested_on": "SNB-19"}, "SNB-75": {"tested_on": "SNB-75"}, "SR": {"tested_on": "SR"}, "SW-620": {"tested_on": "SW-620"}, "T47D": {"tested_on": "T47D"}, "TK-10": {"tested_on": "TK-10"}, "U-251": {"tested_on": "U-251"}, "UACC-257": {"tested_on": "UACC-257"}, "UACC-62": {"tested_on": "UACC-62"}, "UO-31": {"tested_on": "UO-31"}},
  "note": "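In this assay, cells in 96-well plates receive the compound at five concentrations for 48 hours. Endpoints are linearly interpolated between the surrounding concentrations. The concentration for 50% growth inhibition is given as GI50.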 Calls of active or inactive are those of the source. No stated cut-off is given here; in the data, active = GI50 up to about 1.1 µM and inactive = higher.",
  "data": [
    {"smiles": "COc1ccc(C(=O)NCCN(C)C)c2nc3ccccc3cc12", "values": [
      {"measurement": "GI50", "setting": "786-0", "value": "0.305 µM (active)"},
      {"measurement": "GI50", "setting": "A498", "value": "0.114 µM (active)"},
      {"measurement": "GI50", "setting": "A549", "value": "0.0962 µM (active)"},
      {"measurement": "GI50", "setting": "ACHN", "value": "0.21 µM (active)"},
      {"measurement": "GI50", "setting": "BT-549", "value": "3.18 µM (inactive)"},
      {"measurement": "GI50", "setting": "CAKI-1", "value": "0.241 µM (active)"},
      {"measurement": "GI50", "setting": "CCRF-CEM", "value": "0.208 µM (active)"},
      {"measurement": "GI50", "setting": "COLO 205", "value": "1.2 µM (inactive)"},
      {"measurement": "GI50", "setting": "DU-145", "value": "0.753 µM (active)"},
      {"measurement": "GI50", "setting": "EKVX", "value": "1.66 µM (inactive)"},
      {"measurement": "GI50", "setting": "HCC 2998", "value": "2.04 µM (inactive)"},
      {"measurement": "GI50", "setting": "HCT-116", "value": "0.561 µM (active)"},
      {"measurement": "GI50", "setting": "HCT-15", "value": 1.35, "unit": "µM"},
      {"measurement": "GI50", "setting": "HL-60", "value": "0.11 µM (active)"},
      {"measurement": "GI50", "setting": "HOP-62", "value": "0.353 µM (active)"},
      {"measurement": "GI50", "setting": "HOP-92", "value": "1.32 µM (inactive)"},
      {"measurement": "GI50", "setting": "HT-29", "value": "0.596 µM (active)"},
      {"measurement": "GI50", "setting": "Hs-578T", "value": "1.4 µM (inactive)"},
      {"measurement": "GI50", "setting": "IGROV-1", "value": "1.32 µM (inactive)"},
      {"measurement": "GI50", "setting": "K562", "value": "1.44 µM (inactive)"},
      {"measurement": "GI50", "setting": "KM12", "value": "1.34 µM (inactive)"},
      {"measurement": "GI50", "setting": "LOX IMVI", "value": "0.279 µM (active)"},
      {"measurement": "GI50", "setting": "M14", "value": "1.33 µM (inactive)"},
      {"measurement": "GI50", "setting": "MCF7", "value": "0.401 µM (active)"},
      {"measurement": "GI50", "setting": "MDA-MB-231", "value": "2.12 µM (inactive)"},
      {"measurement": "GI50", "setting": "MDA-MB-435", "value": "1.85 µM (inactive)"},
      {"measurement": "GI50", "setting": "MDA-N", "value": "1.46 µM (inactive)"},
      {"measurement": "GI50", "setting": "MOLT-4", "value": "0.0411 µM (active)"},
      {"measurement": "GI50", "setting": "Malme-3M", "value": "0.841 µM (active)"},
      {"measurement": "GI50", "setting": "NCI-H226", "value": "0.785 µM (active)"},
      {"measurement": "GI50", "setting": "NCI-H23", "value": "0.366 µM (active)"},
      {"measurement": "GI50", "setting": "NCI-H460", "value": "0.0255 µM (active)"},
      {"measurement": "GI50", "setting": "NCI-H522", "value": "0.817 µM (active)"},
      {"measurement": "GI50", "setting": "NCI/ADR-RES", "value": "1.67 µM (inactive)"},
      {"measurement": "GI50", "setting": "OVCAR-3", "value": "2 µM (inactive)"},
      {"measurement": "GI50", "setting": "OVCAR-4", "value": "1.54 µM (inactive)"},
      {"measurement": "GI50", "setting": "OVCAR-5", "value": "0.163 µM (active)"},
      {"measurement": "GI50", "setting": "OVCAR-8", "value": "0.655 µM (active)"},
      {"measurement": "GI50", "setting": "PC-3", "value": "1.38 µM (inactive)"},
      {"measurement": "GI50", "setting": "RPMI-8226", "value": "0.354 µM (active)"},
      {"measurement": "GI50", "setting": "RXF 393", "value": "2.15 µM (inactive)"},
      {"measurement": "GI50", "setting": "SF-268", "value": "1.58 µM (inactive)"},
      {"measurement": "GI50", "setting": "SF-295", "value": "0.653 µM (active)"},
      {"measurement": "GI50", "setting": "SF-539", "value": "1.31 µM (inactive)"},
      {"measurement": "GI50", "setting": "SK-MEL-28", "value": "2 µM (inactive)"},
      {"measurement": "GI50", "setting": "SK-MEL-2", "value": "3.01 µM (inactive)"},
      {"measurement": "GI50", "setting": "SK-MEL-5", "value": "1.23 µM (inactive)"},
      {"measurement": "GI50", "setting": "SK-OV-3", "value": "1.56 µM (inactive)"},
      {"measurement": "GI50", "setting": "SN12C", "value": "0.386 µM (active)"},
      {"measurement": "GI50", "setting": "SNB-19", "value": "0.741 µM (active)"},
      {"measurement": "GI50", "setting": "SNB-75", "value": "4.68 µM (inactive)"},
      {"measurement": "GI50", "setting": "SR", "value": "0.0551 µM (active)"},
      {"measurement": "GI50", "setting": "SW-620", "value": "0.383 µM (active)"},
      {"measurement": "GI50", "setting": "T47D", "value": "2.22 µM (inactive)"},
      {"measurement": "GI50", "setting": "TK-10", "value": "1.72 µM (inactive)"},
      {"measurement": "GI50", "setting": "U-251", "value": "0.64 µM (active)"},
      {"measurement": "GI50", "setting": "UACC-257", "value": "1.58 µM (inactive)"},
      {"measurement": "GI50", "setting": "UACC-62", "value": "0.729 µM (active)"},
      {"measurement": "GI50", "setting": "UO-31", "value": "0.532 µM (active)"}
    ]}
  ]
}
